Experimental data reported in ChEMBL document CHEMBL3045770, “Design and synthesis of some thieno[2,3-c]pyridazine derivatives of expected anticancer activity” (2013).

Columns and labels:
Type in all cases: functional
786-0 = experiment: Cytotoxicity against Homo sapiens (human) 786-0 cells after 48 hr by SRB assay; details: 786-0, 48 h
MDA-MB-435 = experiment: Cytotoxicity against Homo sapiens (human) MDA-MB-435 cells after 48 hr by SRB assay; details: MDA-MB-435, 48 h
PC-3 = experiment: Cytotoxicity against Homo sapiens (human) PC3 cells after 48 hr by SRB assay; details: PC-3, 48 h
HCC 2998 = experiment: Cytotoxicity against Homo sapiens (human) HCC2998 cells after 48 hr by SRB assay; details: HCC 2998, 48 h
CAKI-1 = experiment: Cytotoxicity against Homo sapiens (human) Caki1 cells after 48 hr by SRB assay; details: CAKI-1, 48 h
SNB-19 = experiment: Cytotoxicity against Homo sapiens (human) SNB19 cells after 48 hr by SRB assay; details: SNB-19, 48 h
HOP-92 = experiment: Cytotoxicity against Homo sapiens (human) HOP92 cells after 48 hr by SRB assay; details: HOP-92, 48 h
KM12 = experiment: Cytotoxicity against Homo sapiens (human) KM12 cells after 48 hr by SRB assay; details: KM12, 48 h
MDA-MB-231 = experiment: Cytotoxicity against Homo sapiens (human) MDA-MB-231 cells after 48 hr by SRB assay; details: MDA-MB-231, 48 h
NCI-H23 = experiment: Cytotoxicity against Homo sapiens (human) NCI-H23 cells after 48 hr by SRB assay; details: NCI-H23, 48 h
MCF7 = experiment: Cytotoxicity against Homo sapiens (human) MCF7 cells after 48 hr by SRB assay; details: MCF7, 48 h
CCRF-CEM = experiment: Cytotoxicity against Homo sapiens (human) CCRF-CEM cells after 48 hr by SRB assay
SF-295 = experiment: Cytotoxicity against Homo sapiens (human) SF295 cells after 48 hr by SRB assay; details: SF-295, 48 h
HOP-62 = experiment: Cytotoxicity against Homo sapiens (human) HOP62 cells after 48 hr by SRB assay; details: HOP-62, 48 h
[1] = read-out: LC50 (the source's name)

Question: `Oc1c(-c2nnc(-c3ccc(Cl)cc3)o2)sc2nnc(-c3ccccc3)c(-c3ccccc3)c12` was tested. Which GI50 (786-0) did it give?
Answer: 5.86 µM

Question: And the TGI (786-0)?
Answer: 18.3 µM

Question: And the GI50 (MDA-MB-435)?
Answer: 4.65 µM

Question: What about the TGI (MDA-MB-435) of the same molecule?
Answer: 18.3 µM

Question: What about the GI50 (PC-3) of the same molecule?
Answer: 4.09 µM

Question: And the TGI (PC-3)?
Answer: 18.3 µM

Question: What about the CC50 (PC-3; [1]) of the same molecule?
Answer: 0.0183 µM

Question: And the GI50 (HCC 2998)?
Answer: 4.99 µM

Question: And the TGI (HCC 2998)?
Answer: 18.3 µM

Question: And the GI50 (CAKI-1)?
Answer: 1.84 µM

Question: And the TGI (CAKI-1)?
Answer: 9.95 µM

Question: What about the GI50 (SNB-19) of the same molecule?
Answer: 4.7 µM

Question: And the TGI (SNB-19)?
Answer: 18.3 µM

Question: What about the GI50 (HOP-92) of the same molecule?
Answer: 3.21 µM

Question: And the TGI (HOP-92)?
Answer: 6.74 µM

Question: What about the CC50 (HOP-92; [1]) of the same molecule?
Answer: 0.0183 µM

Question: What about the GI50 (KM12) of the same molecule?
Answer: 4.7 µM

Question: What about the TGI (KM12) of the same molecule?
Answer: 15 µM

Question: What about the CC50 (KM12; [1]) of the same molecule?
Answer: 0.0183 µM

Question: What about the GI50 (MDA-MB-231) of the same molecule?
Answer: 4.56 µM

Question: And the TGI (MDA-MB-231)?
Answer: 12.3 µM

Question: What about the CC50 (MDA-MB-231; [1]) of the same molecule?
Answer: 0.0183 µM

Question: What about the GI50 (NCI-H23) of the same molecule?
Answer: 4.94 µM

Question: What about the TGI (NCI-H23) of the same molecule?
Answer: 18.3 µM

Question: And the GI50 (MCF7)?
Answer: 4.43 µM

Question: What about the TGI (MCF7) of the same molecule?
Answer: 18.3 µM

Question: And the CC50 (MCF7; [1])?
Answer: 0.0183 µM

Question: What about the GI50 (CCRF-CEM) of the same molecule?
Answer: 2.88 µM

Question: What about the TGI (CCRF-CEM) of the same molecule?
Answer: 18.3 µM

Question: What about the GI50 (SF-295) of the same molecule?
Answer: 3.28 µM

Question: And the TGI (SF-295)?
Answer: 8.15 µM

Question: What about the GI50 (HOP-62) of the same molecule?
Answer: 4.99 µM

Question: What about the TGI (HOP-62) of the same molecule?
Answer: 18.3 µM
